Data from patent US9017692B2, “Antimicrobial agent, bacterial strain, biosynthesis, and methods of use” (priority 2011, dated 2015).

Experiments:
L. innocua ATCC 33090 = test: Spot-on-lawn antimicrobial activity; format: cell-based, Listeria innocua; settings: TSBYE
Description: (§1) Spot-on-lawn method [He, Z., et al., Appl. Environ. Microbiol., (2007) 73:168-178] was used for the bioassay of antimicrobial activity. Bacterial indicators were incubated at 37° C. for 24 h, except Pseudomonas putida, Clostridium difficile and methycillin resistant Staphylococcus aureus which were incubated for 48 h (Table 1). The indicator overlay was prepared by pouring 10 ml soft agar (seeded with 10 μL indicator culture) onto tryptose agar as basal medium in a petri dish. Purified antimicrobials were two-fold serially diluted and aliquots (10 μL each) were spotted onto the soft agar. The plates were incubated overnight and inspected for the presence of growth inhibition zones. Antimicrobial activity was expressed in arbitrary units (AU)/mL; this value is the reciprocal of the highest dilution displaying a zone of inhibition corresponding to 1 mL of the non-diluted antimicrobial preparation.
(§2) Purified paenibacterin was used for the antimicrobial spectrum test. Microorganisms tested for sensitivity to this compound included pathogenic (e.g., Salmonella Typhimurium, Escherichia coli O157:H7, Listeria monocytogenes, and Staphylococcus aureus) and non-pathogenic (e.g., Escherichia coli K-12, Pseudomonas putida, and Enterococcus faecalis) bacteria (Table 1).

[1] = Enzyme sensitivity test (residual antimicrobial activity, spot-on-lawn); format: physicochemical; settings: 10 h
Description: Crude extracts of Paenibacillus thiaminolyticus OSY-SE were tested for sensitivity to heat and pH change while purified antimicrobial compounds were used for enzyme sensitivity tests. For thermal stability test, crude extract solutions were exposed to 37° C., 55° C. (in incubators) or 80° C. (in a water bath) for 24 h or autoclaved at 121° C. for 5 minutes. For pH stability test, crude extract solutions were diluted with 25 mM phosphate buffer (pH 7.0) and adjusted to pH 3.0, 5.0 and 9.0, followed by incubation for 12 h. Samples were neutralized to pH 7.0 before the antimicrobial activity test. Enzyme sensitivity tests were performed in 25 mM phosphate buffer (pH 7.0) with trypsin (type I, 12705 U/mg), lipase (type I, 9 U/mg), pronase (6.31 U/mg), α-glucosidase (type I, 100U/1.93 mg), lysozyme (46400 U/mg) and in 25 mM phosphate buffer (pH 8.0) with polymyxin acylase (16 U/mg). All enzymes were purchased from Sigma (St. Louis, Mo.) except polymyxin acylase (Wako Chemicals USA, Inc., Richmond, Va.). Digesting solutions were prepared at concentration of 0.1 mg/mL for polymyxin acylase and 0.5 mg/mL for others. These mixtures of enzyme and antimicrobial compound (40 μL of final volume) were incubated at 37° C. for 10 h. Quantitative spot-on-lawn bioassay was used to measure antimicrobial activities after these treatments.

ECO.2276 = test: MIC, CLSI broth microdilution, Gram-negative clinical isolates; format: cell-based, Escherichia coli
Description: (§3) Plates were incubated at 35° C. for 24 h.
(§4) The activity of paenibacterin was also tested against clinical isolates of the following Gram-negative bacterial strains: four strains of the species Pseudomonas aeruginosa (PAE), three strains of the species Acinetobacter baumannii (ABA), two strains of the species Escherichia coli (ECO), and four strains of the species Klebsiella pneumoniae (KPN). Particularly, the strains of Gram-negative bacteria included polymyxin B-resistant (PMB-R) and polymyxin B-sensitive (PMB-S) strains of each above listed species. The MICs were determined using the above described CLSI broth microdilution method, in which the method was performed with both non-binding surface coated (NBS) and polystyrene (PS) 96-well plates (Tables 11 and 12, respectively). The MICs were generally lower in the NBS 96-well plates as compared to the PS 96-well plates.

ATCC 25922 ECO.35 = test: as above; format: cell-based, Escherichia coli
Description: as §3, §4

L. lactis ATCC 11454 = test: Spot-on-lawn antimicrobial activity; format: cell-based; settings: MRS
Description: as §1, §2

[2] = test system: Enterococcus faecalis ATCC 29212; test: Spot-on-lawn antimicrobial activity; format: cell-based; settings: MRS
Description: as §1, §2

[3] = test system: Pseudomonas putida ATCC 45491; test: Spot-on-lawn antimicrobial activity; format: cell-based; settings: TSBYE
Description: as §1, §2

Yersinia enterocolitica = test: Spot-on-lawn antimicrobial activity; format: cell-based; settings: TSBYE
Description: as §1, §2

[4] = test system: Listeria monocytogenes Scott A; test: Spot-on-lawn antimicrobial activity; format: cell-based; settings: TSBYE
Description: as §1, §2

[5] = test system: Lactobacillus plantarum ATCC 8014; test: Spot-on-lawn antimicrobial activity; format: cell-based; settings: MRS
Description: as §1, §2

[6] = test system: Clostridium difficile A515; test: Spot-on-lawn antimicrobial activity; format: cell-based; settings: BHIYE
Description: as §1, §2

[7] = test system: Staphylococcus aureus ATCC 6538; test: Spot-on-lawn antimicrobial activity; format: cell-based; settings: TSBYE
Description: as §1, §2

[8] = test system: Salmonella enterica ser. Typhimurium; test: Spot-on-lawn antimicrobial activity; format: cell-based; settings: TSBYE
Description: as §1, §2

[9] = test system: Bacillus cereus ATCC 14579; test: Spot-on-lawn antimicrobial activity; format: cell-based; settings: TSBYE
Description: as §1, §2

[10] = test system: S. enterica ser. Enteritidis; test: Spot-on-lawn antimicrobial activity; format: cell-based, Salmonella enterica; settings: TSBYE
Description: as §1, §2

[11] = test system: S. enterica ser. Typhimurium DT 109; test: Spot-on-lawn antimicrobial activity; format: cell-based, Salmonella enterica; settings: TSBYE
Description: as §1, §2

Escherichia coli O157:H7 = test: Antimicrobial spectrum test; format: cell-based; settings: gram-negative pathogens such as Escherichia coli O157:H7
Description: as §1, §2

paenibacterin
Antimicrobial activity (AU/ml) (L. innocua ATCC 33090): 1600 AU/ml | Antimicrobial activity after enzyme treatment ([1]; lipase 0.5 mg/mL, pH 7.0, 37° C.): resistant | Antimicrobial activity after enzyme treatment ([1]; lysozyme 0.5 mg/mL, pH 7.0, 37° C.): resistant | Antimicrobial activity after enzyme treatment ([1]; polymyxin acylase 0.1 mg/mL, pH 8.0, 37° C.): activity was lost | Antimicrobial activity after enzyme treatment ([1]; pronase 0.5 mg/mL, pH 7.0, 37° C.): activity was lost | Antimicrobial activity after enzyme treatment ([1]; trypsin 0.5 mg/mL, phosphate buffer pH 7.0, 37° C.): resistant | Antimicrobial activity after enzyme treatment ([1]; α-glucosidase 0.5 mg/mL, pH 7.0, 37° C.): resistant | Minimum inhibitory concentration (MIC) (ECO.2276; NBS 96-well plates): 8 µg/mL | Minimum inhibitory concentration (MIC) (ECO.2276; PS 96-well plates): 16 µg/mL | Minimum inhibitory concentration (MIC) (ATCC 25922 ECO.35; ECO.35 (ATCC 25922), NBS 96-well plates): 8 µg/mL | Minimum inhibitory concentration (MIC) (ATCC 25922 ECO.35; ECO.35, PS 96-well plates): 16 µg/mL | Antimicrobial activity (AU/ml) (L. lactis ATCC 11454): 800 AU/ml | Antimicrobial activity (AU/ml) [2]: 0 AU/ml | Antimicrobial activity (AU/ml) ([2]; listed as Paenibacterin): no activity | Antimicrobial activity (AU/ml) [3]: 400 AU/ml | Antimicrobial activity (AU/ml) (Yersinia enterocolitica): 1600 AU/ml | Antimicrobial activity (AU/ml) [4]: 800 AU/ml | Antimicrobial activity (AU/ml) [5]: 400 AU/ml | Antimicrobial activity (AU/ml) [6]: 200 AU/ml | Antimicrobial activity (AU/ml) [7]: 100 AU/ml | Antimicrobial activity (AU/ml) [8]: 400 AU/ml | Antimicrobial activity (AU/ml) [9]: 800 AU/ml | Antimicrobial activity (AU/ml) [10]: 800 AU/ml | Antimicrobial activity (AU/ml) [11]: 400 AU/ml | Antimicrobial activity (in words) (Escherichia coli O157:H7): good activity
